From patent US12129265B2, “Therapeutic agents and uses thereof” (Ankh Life Sciences Limited, priority 2020, dated 2024)

Columns and labels:
[1] = test system: Human Myeloma, Human Lymphoma, Solid Human tumor and Jeko-1 tumor cell lines; experiment: CellTiter-Glo in vitro cell proliferation assay, Example 8, whole panel; assay type: cell-based; details: 72 hours; cell lines of Table 14
Method: (§1) In this Example, in vitro cell proliferation assays were performed using: (1) Human Myeloma tumor cell lines; (2) Human Lymphoma tumor cell lines; (3) Solid Human tumor cell lines; and (4) Parental, Lenalidomide resistant and Bortezomib resistant Jeko-1 Mantle cell Lymphoma tumor cell lines. The compounds tested were three diharmaline compounds, namely the 518B562 (or simply 562), 560, and 561 compounds. In addition, a monoharmaline product designated as 518F014 was also tested. This monoharmaline product had the following structure:
(§2) Each proliferation assay was carried out as follows. The test cells were plated in growth media using a 384-well microtiter plate at 50 μL volume. The cells were incubated for 24 hours at 37° C. in a humidified incubator. After 24 hours of incubation, the test compounds were added to the test wells in DSMO solvent, at concentrations ranging from 0.0075-100 μM. Control wells received equal volumes of DSMO, without compound. Following drugging, the cells were incubated for 72 hours at 37° C. in a humidified incubator. After this exposure, 100 μL of a 1:1 mixture of sterile water and CellTiter-Glo® reagent (Promega) was added to each well. The plates were then incubated for 60 minutes at room temperature, followed by recording the luminescence value of each well using a luminometer as a measure of cell proliferation.

SU-DHL-6 cells = experiment: CellTiter-Glo in vitro cell proliferation assay, Example 8; assay type: cell-based; details: Homo sapiens; SU-DHL-6, Diffuse Large B-Cell Lymphoma, 72 hours; read-out: Mean IC50
Method: as §1, §2

RXF-393 cells = experiment: as above; assay type: cell-based; details: Homo sapiens; RXF-393, Renal, 72 hours; read-out: Mean IC50
Method: as §1, §2

N87 cells = experiment: as above; assay type: cell-based; details: Homo sapiens; N87, Gastric, 72 hours; read-out: Mean IC50
Method: as §1, §2

SU-DHL-4 cells = experiment: as above; assay type: cell-based; details: Homo sapiens; SU-DHL-4, Diffuse Large B-Cell Lymphoma, 72 hours; read-out: Mean IC50
Method: as §1, §2

DOHH-2 cells = experiment: as above; assay type: cell-based, Human; details: Homo sapiens; DOHH-2, Diffuse Large B-Cell Lymphoma, 72 hours; read-out: Mean IC50
Outline: (§3)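 24 h pre-incubation of plated cells at 37 °C; compound 0.0075–100 μM in DMSO; 72 h exposure at 37 °C; CellTiter-Glo, 60 min RT; luminescence read. Vehicle controls: DMSO alone.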

H1650 (EGFR mut) cells = experiment: as above; assay type: cell-based, Human; details: Homo sapiens, NCI-H1650, Non Small Cell Lung, 72 hours, read-out: Mean IC50
Outline: as §3

MIA PaCa-2 cells = experiment: as above; assay type: cell-based, Human; details: Homo sapiens; MIA PaCa-2, Pancreatic, 72 hours; read-out: Mean IC50
Outline: as §3

KMS-11 cells = experiment: as above; assay type: cell-based, Human; details: KMS-11, Human Myeloma, 72 hours; read-out: Mean IC50
Outline: as §3

JIM1 cells = experiment: as above; assay type: cell-based, Human; details: JIM1, Human Myeloma, 72 hours; read-out: Mean IC50
Outline: as §3

ASPC-1 cells = experiment: as above; assay type: cell-based, Human; details: Homo sapiens, ASPC1; ASPC-1, Pancreatic, 72 hours; read-out: Mean IC50
Outline: as §3

L363 cells = experiment: as above; assay type: cell-based, Human; details: L-363; L363, Human Myeloma, 72 hours; read-out: Mean IC50
Outline: as §3

KHM-1B cells = experiment: as above; assay type: cell-based, Human; details: Human Myeloma, 72 hours, read-out: Mean IC50
Outline: as §3

MOLP-8 cells = experiment: as above; assay type: cell-based, Human; details: MOLP-8, Human Myeloma, 72 hours; read-out: Mean IC50
Outline: as §3

MDA-MB-468 cells = experiment: as above; assay type: cell-based, Human; details: Homo sapiens; MDA-MB-468, Triple Negative Breast, 72 hours; read-out: Mean IC50
Outline: as §3

HCC70 cells = experiment: as above; assay type: cell-based, Human; details: Homo sapiens; HCC70, Triple Negative Breast, 72 hours; read-out: Mean IC50
Outline: as §3

AN3CA cells = experiment: as above; assay type: cell-based, Human; details: Homo sapiens, AN3-CA, Endometrial, 72 hours, read-out: Mean IC50
Outline: as §3

H1975 (EGFR mut) cells = experiment: as above; assay type: cell-based, Human; details: Homo sapiens, NCI-H1975, Non Small Cell Lung, 72 hours, read-out: Mean IC50
Outline: as §3

FaDu cells = experiment: as above; assay type: cell-based, Human; details: Homo sapiens, Squamous, 72 hours, read-out: Mean IC50
Outline: as §3

KMS-27 cells = experiment: as above; assay type: cell-based, Human; details: KMS-27, Human Myeloma, 72 hours; read-out: Mean IC50
Outline: as §3

KMS-34 cells = experiment: as above; assay type: cell-based, Human; details: KMS-34, Human Myeloma, 72 hours; read-out: Mean IC50
Outline: as §3

MM.1s cells = experiment: as above; assay type: cell-based, Human; details: MM1.S; MM.IS, Human Myeloma, 72 hours; read-out: Mean IC50
Outline: as §3

OCI-LY3 cells = experiment: as above; assay type: cell-based, Human; details: Homo sapiens; OCI-LY3, Diffuse Large B-Cell Lymphoma, 72 hours; read-out: Mean IC50
Outline: as §3

SiHA cells = experiment: as above; assay type: cell-based, Human; details: Homo sapiens, Squamous, 72 hours, read-out: Mean IC50
Outline: as §3

KMM-1 cells = experiment: as above; assay type: cell-based, Human; details: KMM-1, Human Myeloma, 72 hours; read-out: Mean IC50
Outline: as §3

Row | SMILES | IC50 values compared with the monoharmaline 518F014 compound [1] | IC50 (SU-DHL-6 cells) | IC50 (RXF-393 cells) | IC50 (N87 cells) | IC50 (SU-DHL-4 cells) | IC50 (DOHH-2 cells) | IC50 (H1650 (EGFR mut) cells) | IC50 (MIA PaCa-2 cells) | IC50 (KMS-11 cells) | IC50 (JIM1 cells) | IC50 (ASPC-1 cells) | IC50 (L363 cells) | IC50 (KHM-1B cells) | IC50 (MOLP-8 cells) | IC50 (MDA-MB-468 cells) | IC50 (HCC70 cells) | IC50 (AN3CA cells) | IC50 (H1975 (EGFR mut) cells) | IC50 (FaDu cells) | IC50 (KMS-27 cells) | other results
1 | COc1ccc2c3c([nH]c2c1)C(CC(CC1=NCCc2c1[nH]c1cc(OC)ccc21)c1ccccc1)=NCC3 [compound 560] | significantly lower IC50 values | 3.52 µM | 5.4 µM | 3.71 µM | 3.68 µM | 6.39 µM | 2.95 µM | 3.38 µM | 4.95 µM | 5.17 µM | 3.62 µM | 5.27 µM | 7.58 µM | 2.89 µM | 3.75 µM | 5.94 µM | 2.71 µM | 4.27 µM | 2.05 µM | 3.94 µM | IC50 (KMS-34 cells): 6.67 µM; IC50 (MM.1s cells): 2.26 µM; IC50 (OCI-LY3 cells): 2.87 µM; IC50 (SiHA cells): 11.6 µM; IC50 (KMM-1 cells): 5.3 µM
2 | COc1ccc2c3c([nH]c2c1)C(CC(CC1=NCCc2c1[nH]c1cc(OC)ccc21)c1ccc(O)c(OC)c1)=NCC3 [compound 562] | significantly lower IC50 values | 0.819 µM | 1.79 µM | 1.85 µM | 1.81 µM | 2.42 µM | 2.3 µM | 1.81 µM | 4.93 µM | 3.95 µM | 2.15 µM | 2 µM | 3.37 µM | 1.38 µM | 2.05 µM | 3.45 µM | 1.79 µM | 1.84 µM | 1.98 µM | 2.1 µM | IC50 (KMS-34 cells): 5.45 µM; IC50 (MM.1s cells): 1.67 µM; IC50 (OCI-LY3 cells): 2.38 µM; IC50 (SiHA cells): 5.13 µM; IC50 (KMM-1 cells): 4.04 µM
